SMILES strings stand for the structures. Entries after “also recorded” stand apart in the source; their conditions may differ. Like-named read-outs stand apart in the source and are kept apart here.

Data set [1] can be described thus: Acute toxicity of L-carnosine (peritoneal and oral). In kind it is in vivo. Particulars: mouse, in vivo; for LD50 at 72 h: dd strain male mice. Here is the method:
(§1) […] LD50 was computed by the Van der Waerden method based on the number of dead mice after 72 hours. In the examination, L-carnosine was diluted with a physiological saline so that its administration concentration would be 0.1-0.3 ml/10 g.

A further data set relates to dd strain male mice. Described as above. In kind it is in vivo. As for the experimental part:
as §1

The conditions of data set [2]: cited from earlier work.
In a further data set the test system is carnosinase. Particulars: taken into the body; with the aid of carnosinase; cited from earlier work.
For data set [3] the following is noted: cited from earlier work. This is another data set of the same source.
[4] abbreviates: peritoneal 15,000 mg/kg, after about 30 minutes.

Turning to `NCCC(=O)N[C@@H](Cc1cnc[nH]1)C(=O)O` [L-carnosine, β-alanyl-L-histidine], the mortality at 12 h in data set [1] (15000 mg/kg, oral 15,000 mg/kg, after 12 hours, read-out: mice died) amounted to 10%. Further, in data set [1] (ip, 15000 mg/kg, peritoneal 15,000 mg/kg, after 2 hours, read-out: experimental animals died), the mortality at 2 h was 80%. The LD50 (usually the dose at which mortality reaches 50%) at 72 h was 9090 mg/kg in data set [1] (ip, peritoneal, Van der Waerden method, 72 hours (75-hour value elsewhere in the source), read-out: LD50 at 95% level of confidence) and over 14900 mg/kg in data set [1] (oral, (the minimum lethal dose), read-out: LD50). In addition, the “toxicity (overall)” value with dd strain male mice (acute toxicity test, dd strain male mice) is recorded as “quite low toxicity”. Moreover, the “appreciable effect (symptoms)” value in the data set with dd strain male mice (oral 15,000 mg/kg) was “did not show any appreciable effect”. The “symptoms when further advanced” value in the data set on dd strain male mice (peritoneal 15,000 mg/kg) was “the animals repeated horizontal rollings and upon contact stimulation the reflex became hyperreactive with an attendant spasm, leading to ultimate death”. Also, in the data set on dd strain male mice (peritoneal 15,000 mg/kg, about 30 minutes after administration), the “symptoms: raising of the tails and clonospasm” value is listed as “seen in as many as half of the experimental animals”. Further, the experimental animals died entry in the data set with dd strain male mice (peritoneal 15,000 mg/kg, after 1 hour and 30 minutes) is recorded as “Half”; in the data set on dd strain male mice (peritoneal 15,000 mg/kg, after 5 hours) it was “all of the experimental animals died”. In addition, the “symptoms: frontal or escape reflexes” value in the data set on dd strain male mice (setting [4]) is “no frontal or escape reflexes”. The “symptoms: spontaneous movement and respiration” value with dd strain male mice (setting [4]) is listed as “a reduction in spontaneous movement accompanied by an irregular or decreased number of respirations”. Further, in the data set with dd strain male mice (peritoneal, mice), the LD100 was 15,000 mg/kg. Moreover, in data set [2], the solubility in water entry is “easily soluble in water; also recorded: readily soluble in water”. Besides, the metabolism entry with carnosinase was “decomposed, with the aid of carnosinase, into L-histidine and β-alanine”. Moreover, the “pH value of its aqueous solution” value in data set [3] is recorded as 8.0-8.5.

The values are drawn from US4446149A, “Medicine for treatment of cervical erosion” (priority 1981, dated 1984).
